According to article PMC8143291, “Cytotoxicity and Microbicidal Activity of Commonly Used Organic Solvents: A Comparative Study and Application to a Standardized Extract from Vaccinium macrocarpon” (Toxics, 2021):
Values joined by “and” are separate entries in the source; they are usually repeats but may differ in a detail not shown here. Identical values can stand only once.

Experiments:
[1] = tested on: Y. enterocolitica IP 864 O: 3; experiment: Dehydrogenase activity (DEHA) MTT test after BMD; format: cell-based, Yersinia enterocolitica; conditions: 24 h exposure; % against untreated control; ± SD; n = 3
Protocol: (§1) The cell dehydrogenase (DEHA, redox, metabolic) activity of all samples was measured at the end of the BMD assay, based on reducing the MTT dye to formazan by the membrane located bacterial enzyme NADH: ubiquinone reductase (H^+-translocation). The protocol of Wang et al. was applied after minor modifications. Briefly, each sample was incubated for 120 min at 37 °C with MTT at a final concentration of 0.5 mg/mL in the culture medium. The resulting non-soluble violet formazan crystals were dissolved with an equal volume of 2-propanol supplemented with 5% formic acid. The absorbance was measured at 550 nm against a blank solution containing the respective volumes of MHB and MTT.
The IC50 values from the MTT assay were evaluated with a non-linear regression analysis (Curve fit, GraphPad Prizm 6.01 software, GraphPad Software Inc., San Diego, CA, USA) using sigmoidal concentration–response curves. The cell viability is presented as a percentage of the untreated control. At least four wells were seeded for every concentration. Three independent assays were performed (n = 3). The maximum tolerated concentration (MTC) for the cell lines was determined from three independent assays according to ISO 10993-5 as the maximum concentration at which at least 70% of the cells were viable (nonlin fit, range, GraphPad Prizm 6.01 software) GraphPad Software Inc., San Diego, CA, USA). To compare the MTC values of the solvents for each cell line, the ordinary One-way ANOVA statistical analysis based on Tukey’s multiple comparisons test with a single pooled variance (GraphPad Prizm 6.01 software) GraphPad Software Inc., San Diego, CA, USA) was utilized, and p ≤ 0.05 was set as a significance level. The respiratory activity of the bacterial cultures was calculated as a percentage against the untreated control.

[2] = tested on: Y. enterocolitica IP 864 O: 3; experiment: Broth microdilution MIC/MBC; format: cell-based, Yersinia enterocolitica; conditions: 24 h exposure; v/v; n = 3
Text: (§2) The bacterial strains used for AST of the solvents included: Staphylococcus aureus (ATCC 29213), Staphylococcus aureus—MRSA (NBIMCC 8327—resistant to methicillin and oxacillin, National Bulgarian Collection for Industrial Microorganisms and Cell Cultures, Sofia, Bulgaria), Streptococcus pyogenes (SAIMC 10535, Collection of the Stephan Angeloff Institute of Microbiology, Sofia, Bulgaria), Enterococcus faecalis (ATCC 29212), Escherichia coli (ATCC 35218), Pseudomonas aeruginosa (ATCC 27853), and Yersinia enterocolitica (IP864 O:3, Collection of Institut Pasteur, Paris, France). The selected strains are the most often investigated ones in the AST research studies in correspondence with the standard ISO 20776-1 Part 1: Reference method for testing the in vitro activity of antimicrobial agents against rapidly growing aerobic bacteria involved in infectious diseases. The antimycotic activity was tested on Candida albicans (CBS 562, Utrecht, The Netherlands). The strains S. aureus, MRSA, E. coli and E. faecalis were grown on Mueller–Hinton broth/agar (MHB/MHA); S. pyogenes, P. aeruginosa, Y. enterocolitica and C. albicans were grown on brain heart infusion (BHI) broth/agar; E. coli was also grown on Luria–Bertani broth/agar (LBB/LBA).
(§3) The minimum inhibitory concentration (MIC) for each solvent was estimated by the broth microdilution method (BMD) in 96-well microplates, following ISO 20776/1-2006 [3] and CLSI protocols. Briefly, a standardized bacterial inoculum was prepared from each bacterial species by suspending 3–4 colonies from a pure culture into 4 mL sterile saline. The turbidity of the inocula was adjusted to McFarland 0.5 (1.0 × 10^8 CFU/mL, λ = 600 nm), and 50 µL were resuspended in 10 mL of the appropriate culture medium for each strain. The bacterial inocula were added to microtiter trays containing equivalent volumes of medium loaded with the relevant solvent in concentrations varying from 0.025 to 25% volume fraction. The final volume of each sample was 100 µL/well. The plates were incubated at 37 °C for 24 h. The pure culture medium served as a negative control. Every MIC was evaluated visually as the lowest concentration without visible growth. […] MBC was defined as the lowest compound’s concentration reducing the colony growth of the initial bacterial inoculum by ≥ 99.9%.

E. coli ATCC 35218 [3] = experiment: Broth microdilution MIC/MBC; format: cell-based, Escherichia coli; conditions: 24 h exposure, v/v, n = 3
Text: as §2, §3

S. pyogenes SAIMC 10535 [4] = experiment: Broth microdilution MIC/MBC; format: cell-based, Streptococcus pyogenes; conditions: 24 h exposure; v/v; n = 3
Text: as §2, §3

S. Aureus ATCC 29213 [5] = experiment: Broth microdilution MIC/MBC; format: cell-based, Staphylococcus aureus; conditions: 24 h exposure; v/v; n = 3
Text: as §2, §3

[6] = tested on: S. Aureus MRSA NBIMCC 8327; experiment: Broth microdilution MIC/MBC; format: cell-based, Staphylococcus aureus; conditions: 24 h exposure; v/v; n = 3
Text: as §2, §3

S. Aureus ATCC 29213 [7] = experiment: Dehydrogenase activity (DEHA) MTT test after BMD; format: cell-based, Staphylococcus aureus; conditions: 24 h exposure; % against untreated control; ± SD; n = 3
Protocol: as §1
(§4) The cell viability is presented as a percentage of the untreated control. At least four wells were seeded for every concentration. Three independent assays were performed (n = 3). […] The respiratory activity of the bacterial cultures was calculated as a percentage against the untreated control.

E. coli ATCC 35218 [8] = experiment: Dehydrogenase activity (DEHA) MTT test after BMD; format: cell-based, Escherichia coli; conditions: in MHB; 24 h exposure; % against untreated control; ± SD; n = 3
Protocol: as §1
(§5) The IC50 values from the MTT assay were evaluated with a non-linear regression analysis (Curve fit, GraphPad Prizm 6.01 software, GraphPad Software Inc., San Diego, CA, USA) using sigmoidal concentration–response curves. The cell viability is presented as a percentage of the untreated control. […] The maximum tolerated concentration (MTC) for the cell lines was determined from three independent assays according to ISO 10993-5 as the maximum concentration at which at least 70% of the cells were viable (nonlin fit, range, GraphPad Prizm 6.01 software) GraphPad Software Inc., San Diego, CA, USA). […] The respiratory activity of the bacterial cultures was calculated as a percentage against the untreated control.

[9] = tested on: Candida Albicans SAIMC 562; experiment: Dehydrogenase activity (DEHA) MTT test after BMD; format: cell-based; conditions: 24 h exposure; % active cells against untreated control; ± SD; n = 3
Protocol: as §1, §5

E. faecalis ATCC 29212 [10] = experiment: Dehydrogenase activity (DEHA) MTT test after BMD; format: cell-based, Enterococcus faecalis; conditions: 24 h exposure; % against untreated control; ± SD; n = 3
Protocol: as §1, §4

S. pyogenes SAIMC 10535 [11] = experiment: Dehydrogenase activity (DEHA) MTT test after BMD; format: cell-based, Streptococcus pyogenes; conditions: 24 h exposure; % against untreated control; ± SD; n = 3
Protocol: as §1, §4

[12] = tested on: Candida Albicans SAIMC 562; experiment: Broth microdilution MIC/MBC; format: cell-based; conditions: 24 h exposure; v/v; n = 3
Text: as §2, with “The antimycotic activity was tested on Candida albicans (CBS 562, Utrecht, The Netherlands).” left out
as §3

[13] = no reference given; cited from earlier work
P. aeruginosa ATCC 27853 [14] = experiment: Dehydrogenase activity (DEHA) MTT test after BMD; format: cell-based, Pseudomonas aeruginosa; conditions: 24 h exposure; % against untreated control; ± SD; n = 3
Protocol: as §1, §4

E. faecalis ATCC 29212 [15] = experiment: Broth microdilution MIC/MBC; format: cell-based, Enterococcus faecalis; conditions: 24 h exposure; v/v; n = 3
Text: as §2, §3

P. aeruginosa ATCC 27853 [16] = experiment: Broth microdilution MIC/MBC; format: cell-based, Pseudomonas aeruginosa; conditions: 24 h exposure; v/v; n = 3
Text: as §2, §3

[17] = tested on: Chinese hamster liver cell line; conditions: cited from earlier work
S. epidermidis = tested on: S. epidermidis; parameters: method as in doi:10.5580/b43; conditions: in the presence of 6% solvent; cited from earlier work
[18] = tested on: breast cancer, mouse macrophage and human umbilical vein endothelial cells; parameters: method as in doi:10.17795/ajmb-33453; conditions: cited from earlier work

Compound	DEHA (dehydrogenase activity) [1] [%]	MBC [2] [%]	MIC [2] [%]	MBC (E. coli ATCC 35218 [3]; in LBB) [%]	MIC (E. coli ATCC 35218 [3]; in LBB) [%]	MBC (E. coli ATCC 35218 [3]; in MHB) [%]	MIC (E. coli ATCC 35218 [3]; in MHB) [%]	MBC (S. pyogenes SAIMC 10535 [4]) [%]	MIC (S. pyogenes SAIMC 10535 [4]) [%]	MBC (S. Aureus ATCC 29213 [5]) [%]	MIC (S. Aureus ATCC 29213 [5]) [%]	MBC [6] [%]	MIC [6] [%]	MBC [12] [%]	MIC [12] [%]	Experimental logP [13]	MBC (E. faecalis ATCC 29212 [15]) [%]	MIC (E. faecalis ATCC 29212 [15]) [%]	MBC (P. aeruginosa ATCC 27853 [16]) [%]	MIC (P. aeruginosa ATCC 27853 [16]) [%]	further results
COCCO [MEtOH, 2-methoxyethanol]	11.76 ± 0.004	25	12.5	12.5	12.5	25	12.5	>25	12.5	>25	25	25	25	12.5	6.25	−0.77	>25	12.5	25	6.25	DEHA (dehydrogenase activity) (S. Aureus ATCC 29213 [7]): 10.27 ± 0.01%; DEHA (dehydrogenase activity) (E. coli ATCC 35218 [8]): 5.86 ± 0.005%; DEHA (dehydrogenase activity) [9]: 77.41 ± 0.03%; DEHA (dehydrogenase activity) (E. faecalis ATCC 29212 [10]): 25.60 ± 0.04%; DEHA (dehydrogenase activity) (S. pyogenes SAIMC 10535 [11]): 28.02 ± 0.02%; DEHA (dehydrogenase activity) (P. aeruginosa ATCC 27853 [14]): 20.23 ± 0.06%
COCCOC [DME, 1,2-dimethoxyethane]	49.04 ± 0.005	6.25	3.125	6.25	3.125	12.5	12.5	>25	6.25	12.5	6.25	3.125	3.125	25	12.5	−0.21	12.5	12.5	12.5	12.5	DEHA (dehydrogenase activity) (S. Aureus ATCC 29213 [7]): 12.54 ± 0.03%; DEHA (dehydrogenase activity) [9]: 31.23% and 31.23 ± 0.01%; DEHA (dehydrogenase activity) (S. pyogenes SAIMC 10535 [11]): 31.32 ± 0.05%
PEG-200																					clastogenic concentrations [17]: 5 to 7 mM
CO [MeOH, methanol]		>25	>25	>25	>25	>25	>25	>25	>25	>25	>25	>25	>25	>25	>25	−0.77	>25	>25	>25	>25	survival (S. epidermidis): 26%
CC(C)=O [acetone]																					maximum tolerated concentration (MTC) / applicable concentration [18]: up to 0.5 % v/v
